Results as given in patent publication US10526389B2, “Peptides and combinations of peptides for use in immunotherapy against lung cancer, including NSCLC and other cancers” (Immatics Biotechnologies GmbH, priority 2015, dated 2020).

Tests used:
CD8+ T cells [1] = assay: In vitro immunogenicity of HLA-A*24 peptides (CD8+ T-cell priming with aAPCs, multimer staining); type: cell-based, human
Experimental: (§1) In order to obtain information regarding the immunogenicity of the TUMAPs of the present invention, the inventors performed investigations using an in vitro T-cell priming assay based on repeated stimulations of CD8+ T cells with artificial antigen presenting cells (aAPCs) loaded with peptide/MHC complexes and anti-CD28 antibody.
(§2) Generation of pMHC/anti-CD28 coated beads, T-cell stimulations and readout was performed in a highly defined in vitro system using four different pMHC molecules per stimulation condition and 8 different pMHC molecules per readout condition.
(§3) The purified co-stimulatory mouse IgG2a anti human CD28 Ab 9.3 (Jung et al., 1987) was chemically biotinylated using Sulfo-N-hydroxysuccinimidobiotin as recommended by the manufacturer (Perbio, Bonn, Germany). Beads used were 5.6 μm diameter streptavidin coated polystyrene particles (Bangs Laboratories, Illinois, USA).
(§4) 800.000 beads/200 μl were coated in 96-well plates in the presence of 4×12.5 ng different biotin-pMHC, washed and 600 ng biotin anti-CD28 were added subsequently in a volume of 200 μl. Stimulations were initiated in 96-well plates by co-incubating 1×10^6 CD8+ T cells with 2×10^5 washed coated beads in 200 μl TCM supplemented with 5 ng/ml IL-12 (PromoCell) for 3 days at 37° C. Half of the medium was then exchanged by fresh TCM supplemented with 80 U/ml IL-2 and incubating was continued for 4 days at 37° C. This stimulation cycle was performed for a total of three times. For the pMHC multimer readout using 8 different pMHC molecules per condition, a two-dimensional combinatorial coding approach was used as previously described (Andersen et al., 2012) with minor modifications encompassing coupling to 5 different fluorochromes. Finally, multimeric analyses were performed by staining the cells with Live/dead near IR dye (Invitrogen, Karlsruhe, Germany), CD8-FITC antibody clone SK1 (BD, Heidelberg, Germany) and fluorescent pMHC multimers. For analysis, a BD LSRII SORP cytometer equipped with appropriate lasers and filters was used. Peptide specific cells were calculated as percentage of total CD8+ cells. Evaluation of multimeric analysis was done using the FlowJo software (Tree Star, Oregon, USA). In vitro priming of specific multimer+CD8+ lymphocytes was detected by comparing to negative control stimulations.
Exemplary flow cytometry results after TUMAP-specific multimer staining for 3 peptides of the invention are shown in FIGS. 3A-3E together with corresponding negative controls.

CD8+ T cells [2] = assay: In vitro immunogenicity of HLA-A*02 peptides (CD8+ T-cell priming with aAPCs, multimer staining); type: cell-based, human
Text: as §1
In order to perform in vitro stimulations by artificial antigen presenting cells loaded with peptide-MHC complex (pMHC) and anti-CD28 antibody, the inventors first isolated CD8+ T cells from fresh HLA-A*02 leukapheresis products via positive selection using CD8 microbeads (Miltenyi Biotec, Bergisch-Gladbach, Germany) of healthy donors obtained from the University clinics Mannheim, Germany, after informed consent.
PBMCs and isolated CD8+ lymphocytes were incubated in T-cell medium (TCM) until use consisting of RPMI-Glutamax (Invitrogen, Karlsruhe, Germany) supplemented with 10% heat inactivated human AB serum (PAN-Biotech, Aidenbach, Germany), 100 U/ml Penicillin/100 μg/ml Streptomycin (Cambrex, Cologne, Germany), 1 mM sodium pyruvate (CC Pro, Oberdorla, Germany), 20 μg/ml Gentamycin (Cambrex). 2.5 ng/ml IL-7 (PromoCell, Heidelberg, Germany) and 10 U/ml IL-2 (Novartis Pharma, Nurnberg, Germany) were also added to the TCM at this step.
as §2, §3, §4

Substance	in vitro immunogenicity: donors (CD8+ T cells [1])	in vitro immunogenicity: wells (CD8+ T cells [1])	in vitro immunogenicity: donors (CD8+ T cells [2])	in vitro immunogenicity: wells (CD8+ T cells [2])
ABCA13-003 (EYLPEFLHTF; listed as Homo sapiens)	++ (20%-49% = ++)	+ (<20% = +)		
ABCC1-001 (VYVTIDENNIL; listed as Homo sapiens)	++ (20%-49% = ++)	+ (<20% = +)		
AHD-001 (EYSDVLAKLAF; listed as Homo sapiens)	+++ (50%-69% = +++)	+ (<20% = +)		
AIFM2-001 (AYKPGALTF; listed as Homo sapiens)	++ (20%-49% = ++)	+ (<20% = +)		
C6orf132-001 (RYGSPINTF; listed as Homo sapiens)	+++ (50%-69% = +++)	+ (<20% = +)		
COL6A3-001 (SYLQAANAL; listed as Homo sapiens)	++ (20%-49% = ++)	+ (<20% = +)		
COL6A3-012 (RYPPPVREF; listed as Homo sapiens)	++++ (>= 70% = ++++)	++ (20%-49% = ++)		
COL6A3-013 (EYQPEMLEKF; listed as Homo sapiens)	+ (<20% = +)	+ (<20% = +)		
COL12A1-003 (SYSIGIANF; listed as Homo sapiens)	++++ (>= 70% = ++++)	+ (<20% = +)		
COLEC12-001 (IYAGQWNDF; listed as Homo sapiens)	+++ (50%-69% = +++)	+ (<20% = +)		
DCSTA-001 (KYIEAIQWI; listed as Homo sapiens)	++++ (>= 70% = ++++)	++ (20%-49% = ++)		
DDX5-007 (NYTNGSFGSNF; listed as Homo sapiens)	+ (<20% = +)	+ (<20% = +)		
DYR-001 (VYTZIQSRF; listed as Homo sapiens)	++ (20%-49% = ++)	+ (<20% = +)		
FAM83A-001 (PFLQASPHF; listed as Homo sapiens)	++++ (>= 70% = ++++)	++ (20%-49% = ++)		
MCM5-001 (ALSGTLSGV; listed as Homo sapiens)			++++ (>= 70% = ++++)	+ (<20% = +)
MXRA5-001 (TLSSIKVEV; listed as Homo sapiens)			++++ (>= 70% = ++++)	+ (<20% = +)
MXRA5-002 (GLTDNIHLV; listed as Homo sapiens)			++++ (>= 70% = ++++)	+ (<20% = +)
NLIEKSIYL (listed as Homo sapiens) [SEQ ID No. 141]			++++ (>= 70% = ++++)	+ (<20% = +)
PCNXL3-001 (GVLENIFGV; listed as Homo sapiens)			+++ (50%-69% = +++)	+ (<20% = +)
PLT-001 (ALFGALFLA; listed as Homo sapiens)			++ (20%-49% = ++)	+ (<20% = +)
PRPF3-001 (AMGIAPPKV; listed as Homo sapiens)			++++ (>= 70% = ++++)	++++ (>= 70% = ++++)
RAD54B-001 (SLYKGLLSV; listed as Homo sapiens)			++++ (>= 70% = ++++)	++ (20%-49% = ++)

Substance	in vitro immunogenicity: donors (CD8+ T cells [1])	in vitro immunogenicity: wells (CD8+ T cells [1])	in vitro immunogenicity: donors (CD8+ T cells [2])	in vitro immunogenicity: wells (CD8+ T cells [2])
RLASYLDKV (listed as Homo sapiens) [SEQ ID No. 133]			++++ (>= 70% = ++++)	++ (20%-49% = ++)
RLDDLKMTV (listed as Homo sapiens) [SEQ ID No. 125]			++++ (>= 70% = ++++)	+ (<20% = +)
RLLDSVSRL (listed as Homo sapiens) [SEQ ID No. 121]			++++ (>= 70% = ++++)	++ (20%-49% = ++)
SERPINB3-001 (KLFGEKTYL)			+++ (50%-69% = +++)	+ (<20% = +)
SF3B3-001 (ELDRTPPEV; listed as Homo sapiens)			++++ (>= 70% = ++++)	++ (20%-49% = ++)
SILEHQIQV (listed as Homo sapiens) [SEQ ID No. 106]			+ (<20% = +)	+ (<20% = +)
SLQGSIMTV (listed as Homo sapiens) [SEQ ID No. 6]			++++ (>= 70% = ++++)	++ (20%-49% = ++)
SMYD3-001 (SLIEDLILL; listed as Homo sapiens)			++ (20%-49% = ++)	+ (<20% = +)
SNRNP20-001 (GLIEIISNA; listed as Homo sapiens)			++++ (>= 70% = ++++)	++ (20%-49% = ++)
TACC3-001 (KLVEFDFLGA; listed as Homo sapiens)			+++ (50%-69% = +++)	+ (<20% = +)
TGFBI-001 (ALFVRLLALA; listed as Homo sapiens)			++++ (>= 70% = ++++)	++ (20%-49% = ++)
TLFPVRLLV (listed as Homo sapiens) [SEQ ID No. 97]			++++ (>= 70% = ++++)	+++ (50%-69% = +++)
TLLDFINAV (listed as Homo sapiens) [SEQ ID No. 108]			+++ (50%-69% = +++)	+ (<20% = +)
TLYPHTSQV (listed as Homo sapiens) [SEQ ID No. 140]			++++ (>= 70% = ++++)	++ (20%-49% = ++)
TMEM43-001 (KLLSDPNYGV; listed as Homo sapiens)			++++ (>= 70% = ++++)	+ (<20% = +)
TNC-001 (AMTQLLAGV; listed as Homo sapiens)			++ (20%-49% = ++)	+ (<20% = +)
UBE2S-001 (ALNEEAGRLLL; listed as Homo sapiens)			++++ (>= 70% = ++++)	+ (<20% = +)
VLLPVEVATHYL (listed as Homo sapiens) [SEQ ID No. 142]			++ (20%-49% = ++)	+ (<20% = +)
VLTSDSPAL (listed as Homo sapiens) [SEQ ID No. 19]			++++ (>= 70% = ++++)	+ (<20% = +)
WNT5A-001 (AMSSKFFLV; listed as Homo sapiens)			++++ (>= 70% = ++++)	++ (20%-49% = ++)
YLNVQVKEL (listed as Homo sapiens) [SEQ ID No. 11]			++++ (>= 70% = ++++)	+ (<20% = +)
YVYQNNIYL (listed as Homo sapiens) [SEQ ID No. 115]			++++ (>= 70% = ++++)	+ (<20% = +)
